We go through 4 compounds from patent US20110218158A1, “DNA CYTOSINE DEAMINASE INHIBITORS” (priority 2008, published 2011).

The target in this experiment is T1, APOBEC3G (Homo sapiens, UniProt Q9HC16).
T1 construct: expressed in transfected cells; crude lysate treated with RNase A
Description: Fluorescence-based APOBEC3G DNA cytosine deaminase assay for HTS, APOBEC3G containing cell lysate. Format: biochemical. As to conditions: for inhibited cytosine deaminase activity (FIG. 5): LOPAC1280 library screened in quadruplicate, cell lysate. From the text: FIG. 4 contains a schematic of a fluorescence based APOBEC3G DNA cytosine deaminase activity assay. The single-strand DNA oligonucleotide substrate has 3 features: i) an APOBEC3G deamination target cite 5′CCCA (with the 3rd C strongly preferred by APOBEC3G), ii) a fluorescent 6-FAM label on the 5′ end (excitable by 490 nm wavelength light) and iii) a 6-FAM ‘quenching’ molecule TAMRA on the 3′ end. This intact ssDNA substrate emits low levels of background fluorescence because the 6-FAM is quenched by the nearby TAMRA. Low-molecular mass (LMM) APOBEC3G, derived from an RNase sensitive high-molecular mass (HMM) cellular complex, efficiently deaminates the indicated cytosine base yielding a uracil. Uracil DNA glycosylase excises the uracil base, which creates an a-basic site that is sensitive to hydrolytic attack by the hydroxide ion of NaOH or heated water (H2O). Finally, cleavage of the ssDNA frees 6-FAM from inhibition by TAMRA and results in fluorescence (490 nm light is used to excite 6-FAM and fluorescence is detected at 517 nm).
APOBEC3G containing cell lysates were prepared from near-confluent APOBEC3G expressing 293 stable cell line (211-21, Harris et al., Cell 2003). DMEM growth medium was aspirated and the cells suspended in 1xPBS, 1 mM EDTA, pH 7.4. The cells were pelleted at 1.2K rpm for 5-10 minutes. The supernatant was aspirated and the tube containing the pelleted cells was placed on ice. Thirty mL of lysis buffer (25 mM HEPES, pH7.4, 150 mM NaCl, 0.5% Triton X-100, 1 mM EDTA, 1 mM MgCl2, 1 mM ZnCl2, 10% Glycerol, and Roche EDTA free complete protease inhibitor (added before use)) was added per 3-5 g cell pellet along with 20 μg/mL RNase A (from Qiagen, catalog no. 19101, 100 mg/ml RNase A solution) and the cells suspended by pipetting. The cells were transferred to a cold homogenizer and homogenized for 10 strokes. […] The protein concentration in the cell lysate was quantified using a Bio-Rad protein assay kit or DC protein assay kit, following the manufacturer's instructions.
A fluorescence-based deaminase activity assay for HTS was performed as follows: 1) 20 μl of the crude cell lysate (15 μg protein, diluted in cell lysis buffer, pH7.4) was placed into 384 well plates using Perkin Elmer flexdrop. […] 5) 3 μl N HCl+27 μl 2 M Tris.Cl (pH7.9) was added using Perkin Elmer flexdrop, mixed by shaking, and fluorescence read with excitation at 492 nm and emission at 517 nm at room temperature in LJL Analyst AD.
A 1280 compound library (LOPAC^1280™, from Sigma-Aldrich) was screened in quadruplicate using the method set forth in Example 1. […] In these experiments, each compound was evaluated a total of four times—twice on one day and twice more on the following day. […]

T1 sequence (Q9HC16 whole entry): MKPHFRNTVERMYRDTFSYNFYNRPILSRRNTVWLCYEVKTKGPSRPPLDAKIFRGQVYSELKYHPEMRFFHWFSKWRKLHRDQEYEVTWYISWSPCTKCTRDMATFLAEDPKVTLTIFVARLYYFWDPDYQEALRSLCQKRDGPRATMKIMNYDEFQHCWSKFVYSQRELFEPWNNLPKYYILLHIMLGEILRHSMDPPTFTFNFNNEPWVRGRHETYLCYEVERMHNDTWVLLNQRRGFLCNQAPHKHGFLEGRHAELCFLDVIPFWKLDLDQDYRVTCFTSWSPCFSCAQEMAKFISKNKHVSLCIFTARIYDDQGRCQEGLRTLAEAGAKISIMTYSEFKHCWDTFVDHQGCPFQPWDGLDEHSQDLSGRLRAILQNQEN

Regarding `O=C(O)c1cc[c]([Hg][Cl])cc1` [4-chloromercuribenzoic acid], the “inhibited cytosine deaminase activity (FIG. 5)” value is “Inhibitors of cytosine deaminase”. `O=C(O)C1=CC(=C(c2ccc(O)c(C(=O)O)c2)c2ccc(O)c(C(=O)O)c2)C=CC1=O` [ATA]: the “inhibited cytosine deaminase activity (FIG. 5)” value is given as “Inhibitors of cytosine deaminase”. For `Cc1nc(N=Nc2cc(S(=O)(=O)O)c3cc([N+](=O)[O-])cc(S(=O)(=O)O)c3c2)c(COP(=O)(O)O)c(C=O)c1O` [PPNDS], the “inhibited cytosine deaminase activity (FIG. 5)” value was “Inhibitors of cytosine deaminase”. On to `Cc1ccc(C(=O)Nc2ccc(S(=O)(=O)O)c3cc(S(=O)(=O)O)cc(S(=O)(=O)O)c23)cc1NC(=O)c1cccc(NC(=O)Nc2cccc(C(=O)Nc3cc(C(=O)Nc4ccc(S(=O)(=O)O)c5cc(S(=O)(=O)O)cc(S(=O)(=O)O)c45)ccc3C)c2)c1` [suramin], for which the inhibition at 10 µM (repeated screen, cell lysate incubated with 10 μM solution of the compound in DMSO, read-out: inhibition of fluorescence relative to positive controls (primary active)) was at least 35%.
